Test results published in US6734292B1, “Pseudoerythromycin derivatives” (The Kitasato Institute, priority 2002, dated 2004).
“And” between values parts separate entries of the source, which are not always exact repeats. Equal values may be shown once.

How the values were obtained:
THP-1 cells = test: enhancing effect for differentiation-induction from human monocyte to macrophage (THP-1/Mφ system, MTT readout); type: cell-based; parameters: key: ++: enhanced 100% or more; +: enhanced 50-100%; ±: enhanced 25-50%; −: no activity; /: expressed cytoxicity; NT: not tested or under assessment; settings: in comparison with enhancing action for differentiation-induction of EM 100 μM
Description: In order to confirm enhancing effect for differentiation-induction of the compounds of the present invention, the enhancing effect for differentiation-induction from human monocyte to macrophage was assayed. Method is performed as follows. THP-1 cells were collected from cultured liquid by centrifugation, adjusted the concentration to 2×10^5 cells/ml using medium (RPMI 1640) and distributed into the 48-well plate at 500 μl/well. PMA solution 10 μl and sample solution 5 μl were added in each well, stirred with mild shaking and incubated at 37° C. for 72-96 hours under 5% CO2. Further MTT 0.5 mg/ml solution was added at 300 μl/well, and incubated at 37° C. for 3 hours under 5% CO2. Supernatant solution was suctioned using the injection tube, added DMSO 500 μl using automatic continuous injector to dissolve formazan completely and transferred each 100 μl to the 96-well plate. The optical absorption was measured using the plate-reader.

[1] = tested on: bleomycin-induced pulmonary fibrosis; test: suppressive effect against bleomycin-induced pulmonary fibrosis (hydroxyproline levels in tissue); type: in vivo, mice; settings: BLM group: BLM 100 mg/kg tail vein day-0 only, day-28, individual mice

Compound | activities in THP-1/Mφ system, Treated conc. 0.3 μM (THP-1 cells) | activities in THP-1/Mφ system, Treated conc. 1 μM (THP-1 cells) | activities in THP-1/Mφ system, Treated conc. 3 μM (THP-1 cells) | activities in THP-1/Mφ system, Treated conc. 10 μM (THP-1 cells) | melting point [°C] | Hydroxyproline levels in tissue, Assay result [1] | Hydroxyproline levels in tissue, Weight conversion [1] | activities in THP-1/Mφ system, Treated conc. 30 μM (THP-1 cells)
CC[C@H]1O[C@]2(O)O[C@H]([C@@H](C)C3O[C@@](C)(C[C@@H]3C)[C@H](O[C@@H]3OC(C)CC(N4CCCCCC4)C3O)[C@@H](C)[C@H](O[C@H]3CC(C)(OC)[C@@H](O)C(C)O3)[C@H]2C)[C@]1(C)O (some centres unmarked) [EM748, de(3′-dimethylamino)-3′-[hexahydro-1(1H)-azepinyl]-8,9-anhydro-pseudoerythromycin A 6,9-hemiketal] | − | ± (enhanced 25-50%) | ++ (enhanced 100% or more) | ++ (enhanced 100% or more) | 120 to 123 |  |  | 
bleomycin [BLM, reference compound] |  |  |  |  |  | 785 µmol/L and 733 µmol/L | 7.1 µmol/g and 6.4 µmol/g | 
CCCCCCNC1CC(C)O[C@@H](O[C@@H]2[C@@H](C)[C@H](O[C@H]3CC(C)(OC)[C@@H](O)C(C)O3)[C@@H](C)[C@@]3(O)O[C@H]([C@@H](C)C4O[C@@]2(C)C[C@@H]4C)[C@](C)(O)[C@@H](CC)O3)C1O (some centres unmarked) [EM738, bis-de(3′-N-methyl)-3′-N-hexyl-8,9-anhydro-pseudoerythromycin A 6,9-hemiketal] | − | ± (enhanced 25-50%) | + (enhanced 50-100%) |  | 115 to 118 |  |  | 
CCCCCCN(CCCCCC)C1CC(C)O[C@@H](O[C@@H]2[C@@H](C)[C@H](O[C@H]3CC(C)(OC)[C@@H](O)C(C)O3)[C@@H](C)[C@@]3(O)O[C@H]([C@@H](C)C4O[C@@]2(C)C[C@@H]4C)[C@](C)(O)[C@@H](CC)O3)C1O (some centres unmarked) [EM739, bis-de(3′-N-methyl)-3′,3′-N,N-dihexyl-8,9-anhydro-pseudoerythromycin A 6,9-hemiketal] | − | ± (enhanced 25-50%) | + (enhanced 50-100%) | + (enhanced 50-100%) | 158 to 160 |  |  | 
CC[C@H]1O[C@]2(O)O[C@H]([C@@H](C)C3O[C@@](C)(C[C@@H]3C)[C@H](O[C@@H]3OC(C)CC(N4CCCCC4)C3O)[C@@H](C)[C@H](O[C@H]3CC(C)(OC)[C@@H](O)C(C)O3)[C@H]2C)[C@]1(C)O (some centres unmarked) [EM734, de(3′-dimethylamino)-3′-piperidino-8,9-anhydro-pseudoerythromycin A 6,9-hemiketal] | − | ± (enhanced 25-50%) | + (enhanced 50-100%) | + (enhanced 50-100%) | 128 to 130 |  |  | 
CCC(O)C(C)(O)C1OC(=O)C(C)C(OC2CC(C)(OC)C(O)C(C)O2)C(C)C(OC2OC(C)CC(N(Cc3ccccc3)Cc3ccccc3)C2O)C2(C)CC(C)=C(O2)C1C (centres unmarked) [EM733, bis-de(3′-N-methyl)-3′,3′-N,N-di-benzyl-8,9-anhydro-pseudoerythromycin A 6,9-hemiketal] | − | ± (enhanced 25-50%) | ± (enhanced 25-50%) |  |  |  |  | 
C=CCN(CC=C)C1CC(C)OC(OC2C(C)C(OC3CC(C)(OC)C(O)C(C)O3)C(C)C(=O)OC(C(C)(O)C(O)CC)C(C)C3=C(C)CC2(C)O3)C1O (centres unmarked) [EM725, bis-de(3′-N-methyl)-3′,3′-N,N-diallyl-8,9-anhydro-pseudoerythromycin A 6,9-hemiketal] |  | − | ± (enhanced 25-50%) | + (enhanced 50-100%) |  |  |  | 
CC[C@H]1OC(=O)[C@H](C)[C@@H](O[C@H]2C[C@@](C)(OC)[C@@H](O)[C@H](C)O2)[C@H](C)[C@@H](O[C@@H]2O[C@H](C)C[C@H](N(C)C)[C@H]2O)[C@](C)(O)C[C@@H](C)C(=O)[C@H](C)[C@@H](O)[C@]1(C)O [EM, Erythromycin] |  | − | ± (enhanced 25-50%) | + (enhanced 50-100%) |  |  |  | + (enhanced 50-100%)
CCC(O)C(C)(O)C1OC(=O)C(C)C(OC2CC(C)(OC)C(O)C(C)O2)C(C)C(OC2OC(C)CC(N(C)CCF)C2O)C2(C)CC(C)=C(O2)C1C (centres unmarked) [EM740] | ± (enhanced 25-50%) | ± (enhanced 25-50%) | + (enhanced 50-100%) | + (enhanced 50-100%) |  |  |  | + (enhanced 50-100%)
CC[C@@H](O)[C@@](C)(O)[C@@H]1OC(=O)[C@H](C)[C@@H](O[C@H]2C[C@@](C)(OC)[C@@H](O)[C@H](C)O2)[C@H](C)[C@@H](O[C@@H]2O[C@H](C)C[C@H](N(C)CCCO)[C@H]2O)[C@@]2(C)CC(C)=C(O2)[C@@H]1C [EM744] |  | − | − | − |  |  |  | 
CC[C@@H](O)[C@@](C)(O)[C@@H]1OC(=O)[C@H](C)[C@@H](O[C@H]2C[C@@](C)(OC)[C@@H](O)[C@H](C)O2)[C@H](C)[C@@H](O[C@@H]2O[C@H](C)C[C@H](N(C)CCOC(C)=O)[C@H]2O)[C@@]2(C)CC(C)=C(O2)[C@@H]1C [EM745, de(3′-N-methyl)-3′-N-(2-acetoxyethyl)-8,9-anhydro-pseudoerythromycin A 6,9-hemiketal] | − | − | ++ (enhanced 100% or more) | ++ (enhanced 100% or more) |  |  |  | ++ (enhanced 100% or more)
CCC(O)C(C)(O)C1OC(=O)C(C)C(O)C(C)C(OC2OC(C)CC(NC)C2O)C2(C)CC(C)=C(O2)C1C (centres unmarked) [EM754, de(3-O-cladinosyl) -de(3′-N-methyl) -8,9-anhydrous-pseudoerythromycin A 6,9-hemiketal] |  | − | − |  |  |  |  | + (enhanced 50-100%)
CCC(O)C(C)(O)C1OC(=O)C(C)C(O)C(C)C(OC2OC(C)CC(N(C)C)C2O)C2(C)CC(C)=C(O2)C1C (centres unmarked) [EM737, de(3-O-cladinosyl)-8,9-anhydro-pseudo erythromycin A 6,9-hemiketal] |  |  | − | + (enhanced 50-100%) |  |  |  | 
CCC(O)C(C)(O)C1OC(=O)C(C)C(OC2CC(C)(OC)C(O)C(C)O2)C(C)C(OC2OC(C)CC(N)C2O)C2(C)CC(C)=C(O2)C1C (centres unmarked) [EM721, bis-de(3′-N-methyl)-8,9-anhydro-pseudo erythromycin A 6,9-hemiketal] |  |  | − | + (enhanced 50-100%) |  |  |  | 
CCC(O)C(C)(O)C1OC(=O)C(C)C(OC2CC(C)(OC)C(O)C(C)O2)C(C)C(OC2OC(C)CC(N(CCCCCCCCCCBr)CCCCCCCCCCBr)C2O)C2(C)CC(C)=C(O2)C1C (centres unmarked) [EM749, bis-de(3′-N-methyl)-3′,3′-N,N-di-(10-bromo-1-decanyl)-8,9-anhydro-pseudoerythromycin A 6,9-hemiketal] |  | ± (enhanced 25-50%) | + (enhanced 50-100%) | + (enhanced 50-100%) |  |  |  | /insolule
CC[C@@H](O)[C@@](C)(O)[C@@H]1OC(=O)[C@H](C)[C@@H](O[C@H]2C[C@@](C)(OC)[C@@H](O)[C@H](C)O2)[C@H](C)[C@@H](O[C@@H]2O[C@H](C)C[C@H](NC(C)C)[C@H]2O)[C@@]2(C)CC(C)=C(O2)[C@@H]1C [EM736, bis-de(3′-N-methyl)-3′-N-(2-propyl)-8,9-anhydro-pseudoerythromycin A 6,9-hemiketal] | − | ± (enhanced 25-50%) | + (enhanced 50-100%) | ++ (enhanced 100% or more) |  |  |  | 
